70 compounds from article PMC6792352, “Limited Chemical Structural Diversity Found to Modulate Thyroid Hormone Receptor in the Tox21 Chemical Library” (Environmental Health Perspectives, 2019) can be followed below.

Where a name gives a salt, the structure may show the parent alone. Where only a bound is given, the exact number is not on record here.

This series can be described thus: in vitro. To be noted: rat, gh3-tre-luc cells.

The CC50 is the concentration giving 50% cytotoxicity. Take `CCC(N)Cc1c[nH]c2ccccc12` (centres unmarked) [Etryptamine acetate]: the CC50 at 24 h (AC50 (uM) modified / 1000, Tox21_110001=Tox21_112820, viability, 1 nM T3 present, 24 h) was more than 100 µM.

On to `Clc1ccc(C(Cn2ccnc2)OCc2ccsc2Cl)c(Cl)c1` (centres unmarked) [Tioconazole], for which, under “AC50 (uM) modified / 1000”, it took 14.7 µM to reach half-maximal cytotoxicity (CC50 at 24 h). As for `Cc1c(C(=O)O)cccc1[N+](=O)[O-]` [2-Methyl-3-nitrobenzoic acid], the CC50 at 24 h (AC50 (uM) modified / 1000) is more than 90 µM.

Compound `Cc1cccc(C(=O)O)c1[N+](=O)[O-]` [3-Methyl-2-nitrobenzoic acid] came in with a CC50 at 24 h (AC50 (uM) modified / 1000) of more than 90 µM. Under “AC50 (uM) modified / 1000”, `CC=C(C)C(=O)OCCC(C)CCC=C(C)C` (centres unmarked) [3,7-Dimethyloct-6-en-1-yl 2-methylbut-2-enoate] came in with a CC50 at 24 h of more than 90 µM.

As to `CN(C)C(=O)CCSC(SCCC(=O)O)c1cccc(/C=C/c2ccc3ccc(Cl)cc3n2)c1` (centres unmarked) [MK-571 sodium], the CC50 at 24 h (AC50 (uM) modified / 1000) was 28.9 µM. For `Oc1ccc(Cc2ccccc2)cc1` [4-Benzylphenol], the CC50 at 24 h (AC50 (uM) modified / 1000) amounted to 84.1 µM. Same read-out and setting: under `Nc1ccc([N+](=O)[O-])cc1` [4-Nitroaniline] stands more than 90 µM; under `CCCC[P+](CCCC)(CCCC)CCCC` [Tetrabutylphosphonium bromide], more than 90 µM. Still for that read-out and setting: under `O=C(OCC1CCC2OC2C1)C1CCC2OC2C1` (centres unmarked) [ECC] stands more than 100 µM; under `CC(C)c1ccc(C(C)C)cc1` [1,4-Diisopropylbenzene], more than 90 µM.

In the case of `C[C@]12Cc3nonc3C[C@@H]1CC[C@@H]1[C@@H]2CC[C@@]2(C)[C@H]1CC[C@]2(C)O` [Furazabol], the 50% cytotoxic concentration (CC50) at 24 h (AC50 (uM) modified / 1000, Tox21_110001=Tox21_112772, viability, 1 nM T3 present, 24 h) came to 25.2 µM. On to `NCCCNCCSP(=O)(O)O` [Amifostine], for which the CC50 at 24 h (AC50 (uM) modified / 1000) was more than 50 µM. The compound `CN1C[C@@H]2c3ccccc3Oc3ccc(Cl)cc3[C@H]2C1` (racemic) [Asenapine] returned a CC50 at 24 h (AC50 (uM) modified / 1000) of 33.1 µM. On the same count and under the same terms, then `N#CCC(=O)O` [Cyanoacetic acid], with more than 90 µM; and `O=C(Cl)c1cc(Cl)cc(Cl)c1` [3,5-Dichlorobenzoyl chloride], with more than 90 µM; and `O=C(O)CNC(=O)CNC(=O)CNC(=O)CSC(=O)c1ccccc1` [Betiatide], with more than 50 µM. Take `O=C(O)C(F)(F)C(F)(F)C(F)(F)C(F)(F)C(F)(F)C(F)(F)F` [Perfluoroheptanoic acid]: for the setting “AC50 (uM) modified / 1000, Tox21_110001=Tox21_300616, viability, 1 nM T3 present, 24 h”, the CC50 at 24 h is more than 90 µM. `CCC(=O)C(CC(C)N(C)C)(c1ccccc1)c1ccccc1` (centres unmarked) [Methadone hydrochloride]: half-maximal cytotoxicity (AC50 (uM) modified / 1000) (CC50 at 24 h) was put at 28.5 µM.

The compound `CCCN(CCC)C(=O)SCC` [EPTC] gave a CC50 at 24 h (AC50 (uM) modified / 1000) of more than 100 µM.

For the setting “AC50 (uM) modified / 1000”, `CCC[C@@H]1C[C@@H](C(=O)N[C@@H]([C@H]2O[C@H](SC)[C@H](O)[C@@H](O)[C@H]2O)[C@@H](C)O)N(C)C1` [Lincomycin hydrochloride] gave a CC50 at 24 h of more than 50 µM. With `COCCOCCOCCOC` [Triethylene glycol dimethyl ether], for the setting “AC50 (uM) modified / 1000”, the CC50 at 24 h was more than 90 µM. On to `C#C[C@]1(O)CC[C@H]2[C@@H]3CCc4cc(O)ccc4[C@H]3CC[C@@]21C` [17alpha-Ethinylestradiol], for which the CC50 at 24 h (AC50 (uM) modified / 1000) is more than 90 µM. The same measure, in the same setting: under `CCc1cccc(CC)c1N` [2,6-Diethylaniline] stands more than 90 µM; under `CCCCOCCO` [2-Butoxyethanol], more than 90 µM; under `CCOC(=O)C1=C(C)NC(C)=C(C(=O)OC)C1c1cccc(Cl)c1Cl` (centres unmarked) [Felodipine], 13.5 µM. On the same count and under the same terms, under `CCOC(=O)c1ccccc1C(=C1C=C(Br)C(=O)C(Br)=C1)c1cc(Br)c(O)c(Br)c1` [Tetrabromophenolphthalein ethyl ester] stands 42.7 µM; under `CC(C)=CCC/C(C)=C/C=O` [3,7-Dimethyl-2,6-octadienal], more than 90 µM. Still for that read-out and setting: under `CCCCCCCCCCCCCCCC(=O)OC[C@H](COP(=O)([O-])OCC[N+](C)(C)C)OC(=O)CCCCCCCCCCCCCCC` [Colfosceril palmitate] stands more than 50 µM; under `O=C(c1ccc(O)c(O)c1)c1ccc(O)cc1O` [2,3',4,4'-Tetrahydroxybenzophenone], 49.5 µM; under `O=[N+]([O-])O[C@@H]1CO[C@H]2[C@@H]1OC[C@@H]2O` [Isosorbide 5-mononitrate], more than 50 µM. For the compound `CCCCC(=O)O` [Pentanoic acid], for the setting “AC50 (uM) modified / 1000”, the CC50 at 24 h is more than 90 µM. `CCC(=O)O[C@H]1[C@@H](N2CCCCC2)C[C@H]2[C@@H]3CC[C@H]4C[C@H](OC(C)=O)[C@@H](N5CCCCC5)C[C@]4(C)[C@H]3CC[C@@]21C` [(2beta,3alpha,5alpha,16beta,17beta)-3-Acetoxy-2,16-di(1-piperidinyl)androstan-17-yl propionate] yielded a CC50 at 24 h (AC50 (uM) modified / 1000) of more than 50 µM. On to `CC(=O)O[C@H]1C(=O)[C@@]2(C)[C@H]([C@H](OC(=O)c3ccccc3)[C@]3(O)C[C@H](OC(=O)[C@H](O)[C@@H](NC(=O)c4ccccc4)c4ccccc4)C(C)=C1C3(C)C)[C@]1(OC(C)=O)CO[C@@H]1C[C@@H]2O` [Paclitaxel], for which, under “AC50 (uM) modified / 1000”, half-maximal cytotoxicity (CC50 at 24 h) was put at 0.25 µM. Same read-out and setting: under `CO/N=C(\C(=O)N[C@@H]1C(=O)N2C(C(=O)[O-])=C(C[n+]3cccc4c3CCC4)CS[C@H]12)c1csc(N)n1` [Cefpirome sulfate] stands more than 50 µM. The same measure, in the same setting: then `O=C(O)[C@H](CC(=O)N1C[C@H]2CCCC[C@H]2C1)Cc1ccccc1` [Mitiglinide calcium dihydrate], with more than 50 µM; and `COCc1cnc(C2=NC(C)(C(C)C)C(=O)N2)c(C(=O)O)c1` (centres unmarked) [Imazamox], with more than 90 µM. Turning to `O=C(NC(=O)c1cc(F)c(F)cc1Cl)Nc1cc(F)ccc1N1CCC(C(=O)O)CC1` [AVE2865], the CC50 at 24 h (AC50 (uM) modified / 1000, Tox21_110001=Tox21_300253, viability, 1 nM T3 present, 24 h) was more than 50 µM. Consider `C=C(C)C(=O)OCCC(F)(F)C(F)(F)C(F)(F)C(F)(F)C(F)(F)C(F)(F)F` [6:2 Fluorotelomer methacrylate], for which the CC50 at 24 h (AC50 (uM) modified / 1000) was more than 90 µM.

Compound `CCCCCCCCCCCCOCCOS(=O)(=O)O` [Sodium lauryl polyoxyethylene ether sulfate] registered a CC50 at 24 h (AC50 (uM) modified / 1000) of 41 µM. Still for that read-out and setting: then `O=C(O)C(Cc1cc(I)c(O)c(I)c1)c1ccccc1` (centres unmarked) [Iodoalphionic acid], with more than 50 µM. On the same count and under the same terms, under `Cc1ccccc1CCl` [1-(Chloromethyl)-2-methylbenzene] stands more than 90 µM; under `N#Cc1sc2c(=O)c3ccccc3c(=O)c=2sc1C#N` [Dithianon], 29.4 µM.

In the case of `C=C(C)C#N` [Methacrylonitrile], the CC50 at 24 h runs as follows: (AC50 (uM) modified / 1000, Tox21_110001=Tox21_201354, viability, 1 nM T3 present, 24 h) more than 100 µM; (AC50 (uM) modified / 1000, Tox21_110001=Tox21_303172, viability, 1 nM T3 present, 24 h) more than 90 µM. For `CCCCCCC(=O)c1ccccc1` [Heptanophenone], where the note is “AC50 (uM) modified / 1000”, the 50% cytotoxic concentration (CC50) at 24 h was more than 90 µM. Under “AC50 (uM) modified / 1000”, `C/C=C(/CC[C@@H](C)[C@H]1CC[C@H]2C3=CC[C@H]4[C@H](C)[C@@H](O)CC[C@]4(C)[C@H]3CC[C@]12C)C(C)C` [Sitosterol alpha1] returned a CC50 at 24 h of more than 50 µM. On to `NC(=O)c1ccccc1O` [Salicylamide], for which the CC50 at 24 h (AC50 (uM) modified / 1000) is more than 90 µM. The same measure, in the same setting: under `C=C[Si](OCC)(OCC)OCC` [Ethenyl(triethoxy)silane] stands more than 90 µM; under `Cc1cc(=O)oc2cc(O)cc(O)c12` [5,7-Dihydroxy-4-methylcoumarin], more than 90 µM; under `Nc1ccc2c(c1)C(=O)c1ccccc1C2=O` [2-Aminoanthraquinone], more than 90 µM. `CCC(C)C=O` (centres unmarked) [2-Methylbutanal]: the CC50 at 24 h (AC50 (uM) modified / 1000) was more than 90 µM.

With `CSCC[C@H](NC(=O)[C@H](Cc1ccc(OS(=O)(=O)O)cc1)NC(=O)[C@@H](N)CC(=O)O)C(=O)NCC(=O)N[C@@H](Cc1c[nH]c2ccccc12)C(=O)N[C@@H](CCSC)C(=O)N[C@@H](CC(=O)O)C(=O)N[C@@H](Cc1ccccc1)C(N)=O` [Sincalide], the CC50 at 24 h (AC50 (uM) modified / 1000) is more than 50 µM.

The compound `O=NN1CCCCC1` [N-Nitrosopiperidine] showed a CC50 at 24 h (AC50 (uM) modified / 1000, Tox21_110001=Tox21_200267, viability, 1 nM T3 present, 24 h) of more than 90 µM. Under “AC50 (uM) modified / 1000”, `Cc1cc(O)no1` [Hymexazol] showed a CC50 at 24 h of more than 100 µM. `O=C1CCCC(=O)O1` [Glutaric anhydride] displayed a CC50 at 24 h (AC50 (uM) modified / 1000) of more than 90 µM.

`Nc1nc(F)nc2c1ncn2[C@@H]1O[C@H](CO)[C@@H](O)[C@@H]1O` [Fludarabine]: for the setting “AC50 (uM) modified / 1000”, half-maximal cytotoxicity (CC50 at 24 h) was put at 52 µM.

Where the note is “AC50 (uM) modified / 1000”, `Cc1ccccc1Cl` [2-Chlorotoluene] had a CC50 at 24 h of more than 90 µM. The compound `CCCCCCCCCCCCOC(=O)c1ccc(O)cc1` [Dodecylparaben] displayed a CC50 at 24 h (AC50 (uM) modified / 1000) of 26 µM. The same measure, in the same setting: then `CCCCCCCC(=O)Cl` [Caprylyl chloride], with more than 90 µM. On to `CCCCN(CCCC)N=O` [N-Nitrosodibutylamine], for which the CC50 at 24 h (AC50 (uM) modified / 1000, Tox21_110001=Tox21_202334, viability, 1 nM T3 present, 24 h) was more than 90 µM. In the case of `Cc1cc(C)c(NC(=O)C[C@H](CC(=O)O)c2cccc3ccccc23)c(C(=O)N2CCC3(CCCC3)CC2)c1` [Itriglumide sodium], the CC50 at 24 h (AC50 (uM) modified / 1000) worked out at 26.9 µM.

In turn, `CCOC(=O)C(SP(=S)(OC)OC)c1ccccc1` (centres unmarked) [Phenthoate] registered a CC50 at 24 h (AC50 (uM) modified / 1000) of more than 90 µM. Consider `Cc1cccnc1` [3-Methylpyridine], for which, for the setting “AC50 (uM) modified / 1000”, the CC50 at 24 h was more than 90 µM. The same measure, in the same setting: then `N=C1N=C(N)c2cc3ccccc3cc21` [1,3-Diiminobenz(f)isoindoline], with 39.2 µM; and `NCCNC(=O)c1ccc(Cl)cn1` [Lazabemide hydrochloride], with more than 50 µM. Turning to `O=C(O)CCc1ccccc1` [Hydrocinnamic acid], the CC50 at 24 h (AC50 (uM) modified / 1000) is more than 90 µM.

Where the note is “AC50 (uM) modified / 1000”, `CCCCCCCCCCCCCCCCCCO` [1-Octadecanol] showed a half-maximal cytotoxic concentration (CC50) at 24 h of more than 50 µM.

For `OCc1ccco1` [Furfuryl alcohol], where the note is “AC50 (uM) modified / 1000”, the CC50 at 24 h is more than 90 µM.

For `N#CSc1ccc(N)c([N+](=O)[O-])c1` [2-Nitro-4-thiocyanoaniline], the CC50 at 24 h (AC50 (uM) modified / 1000) came to 51.1 µM. On the same count and under the same terms, under `CN1CC(=O)N=C1NC(=O)Nc1cccc(Cl)c1` [Fenobam] stands more than 50 µM.
